Measurements reported in ChEMBL document CHEMBL1149223, “Non-nucleoside inhibitors of the hepatitis C virus NS5B polymerase: discovery and preliminary SAR of benzimidazole derivatives” (Bioorg Med Chem Lett, 2004).

Columns and labels:
[1] = molecular target: RNA-directed RNA polymerase (Hepacivirus hominis, UniProt O39930); test: Inhibitory activity against NS5B polymerase of hepatitis C virus
[2] = system: Hepatitis C virus; test: Inhibitory activity against HCV RNA replication; format: functional, organism-based, Hepacivirus hominis
[3] = molecular target: Genome polyprotein (Human poliovirus 1 Mahoney, UniProt P03300); test: Inhibitory activity against polio virus RNA polymerase
Chain of Genome polyprotein (P03300 1749-2209 limits assumed): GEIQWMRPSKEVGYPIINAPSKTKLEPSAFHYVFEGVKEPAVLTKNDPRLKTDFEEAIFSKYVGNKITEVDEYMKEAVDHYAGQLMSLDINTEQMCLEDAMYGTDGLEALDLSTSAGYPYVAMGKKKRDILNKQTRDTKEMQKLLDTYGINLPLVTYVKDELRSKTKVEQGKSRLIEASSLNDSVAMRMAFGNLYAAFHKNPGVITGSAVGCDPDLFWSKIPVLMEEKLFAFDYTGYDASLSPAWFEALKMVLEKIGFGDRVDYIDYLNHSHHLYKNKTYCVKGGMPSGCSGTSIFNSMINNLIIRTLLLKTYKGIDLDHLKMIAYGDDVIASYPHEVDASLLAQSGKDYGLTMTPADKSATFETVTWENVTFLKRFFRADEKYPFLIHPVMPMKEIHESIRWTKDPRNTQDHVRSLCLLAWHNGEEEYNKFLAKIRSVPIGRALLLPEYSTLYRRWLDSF

[4] = molecular target: RNA-directed RNA polymerase (Hepacivirus hominis) (UniProt O39930); test: Inhibitory activity against NS5B polymerase of hepatitis C virus at 7 uM concentration; (Range = 13-30)
Chain of RNA-directed RNA polymerase (Hepacivirus hominis) (O39930 1-591): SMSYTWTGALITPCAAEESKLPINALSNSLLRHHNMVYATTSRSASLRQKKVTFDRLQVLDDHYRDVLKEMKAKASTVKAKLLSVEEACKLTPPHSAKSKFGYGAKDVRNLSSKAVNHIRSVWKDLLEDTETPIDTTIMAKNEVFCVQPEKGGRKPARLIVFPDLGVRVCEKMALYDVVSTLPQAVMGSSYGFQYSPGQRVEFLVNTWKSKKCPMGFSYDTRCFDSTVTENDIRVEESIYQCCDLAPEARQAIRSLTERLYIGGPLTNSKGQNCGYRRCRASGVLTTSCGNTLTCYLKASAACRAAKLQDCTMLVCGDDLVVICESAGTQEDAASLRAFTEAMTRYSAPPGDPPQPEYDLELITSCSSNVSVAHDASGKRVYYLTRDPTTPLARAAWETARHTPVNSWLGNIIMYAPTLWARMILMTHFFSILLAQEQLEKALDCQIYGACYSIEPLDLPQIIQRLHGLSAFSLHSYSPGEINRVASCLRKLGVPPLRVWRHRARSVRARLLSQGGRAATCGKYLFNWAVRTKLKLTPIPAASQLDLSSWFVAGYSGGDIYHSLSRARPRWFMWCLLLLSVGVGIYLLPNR

Chain of RNA-directed RNA polymerase (O39930 whole entry): as the sequence (O39930 1-591) above

SMILES | IC50 [1] | EC50 [2] | IC50 [3] | inhibition [4]
O=C(O)c1ccc2[nH]c(-c3ccccn3)nc2c1 | > 500 µM | – | – | –
O=C(O)c1ccc2c(c1)nc(-c1ccccn1)n2C1CCCCC1 | 4.3 µM | > 100 µM | > 500 µM | –
O=C(O)c1ccc2c(c1)nc(-c1cc3ccccc3o1)n2C1CCCCC1 | 58 µM | – | – | –
CC(C)n1c(-c2ccccn2)nc2cc(C(=O)O)ccc21 | 408 µM | – | – | –
O=C(O)c1ccc2c(c1)nc(-c1ccc(C(=O)O)o1)n2C1CCCCC1 | > 30 µM | – | – | –
O=C(O)c1ccc2c(c1)nc(-c1ccncc1)n2C1CCCCC1 | 17 µM | – | > 500 µM | –
O=C(O)c1ccc2c(c1)nc(-c1c[nH]nc1-c1ccccc1)n2C1CCCCC1 | > 30 µM | – | – | –
O=C(O)c1ccc2c(c1)nc(-c1ccco1)n2C1CCCCC1 | 3.7 µM | – | > 500 µM | –
O=C(O)c1ccc2c(c1)nc(-c1ccccc1)n2C1CCCCC1 | 8.6 µM | – | 250 µM | –
O=C(O)c1ccc2c(c1)nc(-c1ccccn1)n2-c1ccccc1 | 360 µM | – | – | –
O=C(O)c1ccc2c(c1)nc(-c1ccc(C(=O)O)s1)n2C1CCCCC1 | > 30 µM | – | – | –
O=C(O)c1ccc2c(c1)nc(C1CCCCC1)n2C1CCCCC1 | 20 µM | – | – | –
COc1ccc(CCNC(=O)c2ccc3c(c2)nc(-c2ccccn2)n3C2CCCCC2)cc1OC | 12 µM | – | > 500 µM | –
O=C(O)c1ccc2c(c1)nc(-c1ccc(-c3ccc(Cl)cc3)o1)n2C1CCCCC1 | > 30 µM | – | – | –
O=C(O)c1ccc2c(c1)ncn2C1CCCCC1 | 186 µM | – | – | –
Cc1cccc(-c2nc3cc(C(=O)O)ccc3n2C2CCCCC2)n1 | > 30 µM | – | – | –
CNC(=O)c1ccc2c(c1)nc(-c1ccccn1)n2C1CCCCC1 | 28 µM | – | – | –
CCOC(=O)c1nc2cc(C(=O)O)ccc2n1C1CCCCC1 | 62 µM | – | – | –
CC1CCCCC1n1c(-c2ccccn2)nc2cc(C(=O)O)ccc21 (centres undefined) | 13 µM | – | > 500 µM | –
O=C(O)c1ccc2c(c1)nc(-c1ccccn1)n2C1CCCCCC1 | 49 µM | – | – | –
COc1ccc(NC(=O)c2ccc3c(c2)nc(-c2ccccn2)n3C2CCCCC2)cc1OC | – | – | – | 30%
O=C(O)c1ccc2c(c1)nc(-c1ccc3ccccc3n1)n2C1CCCCC1 | > 30 µM | – | – | –
CCc1ccc(-c2nc3cc(C(=O)O)ccc3n2C2CCCCC2)s1 | > 30 µM | – | – | –
Cc1[nH]cnc1-c1nc2cc(C(=O)O)ccc2n1C1CCCCC1 | > 30 µM | – | – | –

SMILES | IC50 [1] | EC50 [2] | IC50 [3] | inhibition [4]
O=C(O)c1ccc2c(c1)nc(C(=O)c1ccccc1)n2C1CCCCC1 | 44 µM | – | – | –
Cc1c(-c2nc3cc(C(=O)O)ccc3n2C2CCCCC2)[nH]c2ccccc12 | > 30 µM | – | – | –
Cn1cccc1-c1nc2cc(C(=O)O)ccc2n1C1CCCCC1 | 1.8 µM | – | > 500 µM | –
Cc1ccc(-c2nc3cc(C(=O)O)ccc3n2C2CCCCC2)s1 | > 30 µM | – | – | –
O=C(O)c1ccc2c(c1)nc(-c1cccnc1)n2C1CCCCC1 | 28 µM | – | > 250 µM | –
CCc1ccc(-c2nc3cc(C(=O)O)ccc3n2C2CCCCC2)o1 | > 30 µM | – | – | –
CC1CCC(n2c(-c3ccccn3)nc3cc(C(=O)O)ccc32)CC1 (centres undefined) | 50 µM | – | – | –
NC(=O)c1ccc2c(c1)nc(-c1ccccn1)n2C1CCCCC1 | 27 µM | – | – | –
O=C(O)c1ccc2c(c1)nc(-c1ccc(Br)o1)n2C1CCCCC1 | > 30 µM | – | – | –
O=C(O)c1ccc2c(c1)nc(-c1ccc(CO)o1)n2C1CCCCC1 | > 30 µM | – | – | –
CN(C)CCCNC(=O)COc1ccc(-c2nc3cc(C(=O)O)ccc3n2C2CCCCC2)cc1 | 13 µM | – | – | –
CCC(CC)n1c(-c2ccccn2)nc2cc(C(=O)O)ccc21 | 139 µM | – | – | –
O=C(O)c1ccc2c(c1)nc(-c1ccoc1)n2C1CCCCC1 | 1.6 µM | > 100 µM | > 250 µM | –
O=C(O)c1ccc2c(c1)nc(-c1ccc[nH]1)n2C1CCCCC1 | 5.9 µM | – | > 500 µM | –
O=C(O)c1ccc2c(c1)nc(-c1ccccn1)n2C1CCCC1 | 12 µM | – | > 500 µM | –
Cc1cc(C)c(-c2nc3cc(C(=O)O)ccc3n2C2CCCCC2)c(C)c1 | 120 µM | – | – | –
O=C(O)c1ccc2c(c1)nc(-c1cccs1)n2C1CCCCC1 | 3.4 µM | > 100 µM | > 250 µM | –
O=C(O)c1ccc2c(c1)nc(-c1ccccn1)n2C1CCC1 | 76 µM | – | – | –
O=C(O)c1ccc2c(c1)nc(-c1ccsc1)n2C1CCCCC1 | 6.33 µM | > 100 µM | > 250 µM | –
Cc1cc(-c2nc3cc(C(=O)O)ccc3n2C2CCCCC2)oc1C | > 30 µM | – | – | –
O=C(O)c1ccc2c(c1)nc(-c1nccs1)n2C1CCCCC1 | 4.6 µM | – | > 500 µM | –
CC(C)=Cc1nc2cc(C(=O)O)ccc2n1C1CCCCC1 | 19 µM | – | > 500 µM | –
COc1ccc(CNC(=O)c2ccc3c(c2)nc(-c2ccccn2)n3C2CCCCC2)cc1OC | 7.1 µM | – | > 500 µM | –
O=C(O)c1ccc2c(c1)nc(-c1ncc[nH]1)n2C1CCCCC1 | 10 µM | – | > 250 µM | –
